Patent US20040048369A1, “Control of inward-rectifier K+ ion channels” (priority 2002, published 2004)
Like-named read-outs stand apart in the source and are kept apart here. One block for each molecule: values may come before it.

How the values were obtained:
IRK1 channels [1] = molecular target: T1, IRK1 channels (Mus musculus, UniProt P35561); test: Block of IRK1 currents by intracellular chemicals, inside-out patches of Xenopus oocytes injected with IRK1 cRNA; assay type: cell-based; settings: for inward rectification with intracellular metal ion chelator: each at 5 mM, pH 7.6, phosphate buffer
T1 construct: expressed in transfected cells; host or cells: Xenopus laevis oocytes injected with IRK1 cRNA; inside-out patches
T1 sequence (P35561 1-428): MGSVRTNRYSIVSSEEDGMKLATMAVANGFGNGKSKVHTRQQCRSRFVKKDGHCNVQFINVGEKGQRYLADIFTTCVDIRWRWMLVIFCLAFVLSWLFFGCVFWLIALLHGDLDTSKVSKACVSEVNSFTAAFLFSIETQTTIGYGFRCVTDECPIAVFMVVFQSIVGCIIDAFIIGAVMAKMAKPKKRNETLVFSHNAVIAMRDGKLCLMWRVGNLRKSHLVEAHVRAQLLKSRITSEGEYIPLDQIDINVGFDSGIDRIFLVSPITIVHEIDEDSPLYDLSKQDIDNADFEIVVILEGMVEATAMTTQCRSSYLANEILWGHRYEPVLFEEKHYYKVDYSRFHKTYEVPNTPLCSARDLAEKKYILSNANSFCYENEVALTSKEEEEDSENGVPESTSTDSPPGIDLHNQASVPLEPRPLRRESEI
Method: IRK1 cDNA (Kubo et al., 1993) was cloned into the pGEM-Hess plasmid (IRK1-pGEMHess construct, provided by J. Yang). RNA was synthesized using T7 polymerase (Promega Corp., Madison, Wis.) from Nhe1-linearized cDNAs. Oocytes harvested from Xenopus laevis (Xenopus One, Ann Arbor, Mich.) were incubated in a solution containing NaCl, 82.5 mM; KCI, 2.5 mM; MgCl2, 1.0 mM; HEPES (pH 7.6), 5.0 mM and collagenase, 2-4 mg/ml. The oocyte preparation was agitated at 80 rpm for 60-90 minutes. It was then rinsed thoroughly and stored in a solution containing NaCl, 96 mM; KCl, 2.5 mM; CaCl2, 1.8 mM; MgCl2, 1.0 mM; HEPES (pH 7.6), 5 mM and gentamicin, 50 μg/ml. Defolliculated oocytes were selected and injected with RNA at least 2 and 16 hours, respectively, after collagenase treatment. All oocytes were stored at 18° C.
(§1) IRK1 currents were recorded from inside-out membrane patches of Xenopus oocytes (injected with IRK1cRNA) with an Axopatch 200B amplifier (Axon Instruments, Inc., Foster City, Calif.), filtered at 5 kHz, and sampled at 25 kHz using an analog-to-digital converter (DigiData 1200, Axon Instruments) interfaced with a personal computer. pClamp6 software (Axon Instruments) was used to control the amplifier and acquire the data. During current recording, the voltage across the membrane patch was first hyperpolarized from the 0 mV holding potential to −100 mV, and then stepped to various test voltages, or stepped directly from the holding potential. […] Background leak current correction was carried out as previously described (Lu and MacKinnon, Nature 371:243-246 (1994); Guo and Lu, 2000a). To effectively perfuse the patch, the tip of the patch pipette (3 MΣ) was immersed in a stream of intracellular solution exiting one of ten glass capillaries (ID=0.2 mm) mounted in parallel.
All recording solutions contained 100 mM K^+ contributed by KCl, K2EDTA, K2HPO4, KH2PO4, and KOH. The phosphate-buffered intracellular solution contained 5 mM K2EDTA (unless specified otherwise), and 10 mM “K2HPO4+KH2PO4” in a ratio yielding the desired pH, and sufficient KCl to bring total K^+ concentration to 100 mM (Guo and Lu, 2000a). The HEPES-buffered intracellular solution, as used in FIG. 3, contained (100 mM K^+ (Cl^−+OH^−), 5 mM EDTA and 10 mM HEPES, pH 7.2 (adjusted with KOH). The HEPES-buffered extracellular solution contained 100 mM K^+ (Cl^−+OH^−), 0.3 mM CaCl2, 1.0 mM MgCl2, and 10 mM HEPES, pH 7.6 (adjusted with KOH). In the phosphate-buffered extracellular solution, HEPES was replaced by an equal concentration of “K2HPO4+KH2PO4” in a ratio yielding pH 7.6. The divalent cation-free extracellular solution contained 5 mM EDTA. All chemicals were purchased from Fluka Chemical Corp.
In all cases the intracellular solutions contained 100 mM K^+, 5 mM EDTA and 10 mM phosphate (pH 7.6) in addition to the tested chemicals, while the extracellular solution contained 100 mM K^+, 0.3 mM Ca^2+, 1 mM Mg^2+, 10 mM phosphate (pH 7.6). The currents were corrected for background current.

IRK1 channels [2] = molecular target: T1, IRK1 channels; test: Relaxation/block of inward IRK1 currents by extracellular chemicals, inside-out patches; assay type: cell-based; settings: 10 mM HEPES, 3 μM HEP or 0.3 μM piperazine
Method: as §1
The phosphate-buffered intracellular solution contained 5 mM K2EDTA (unless specified otherwise), and 10 mM “K2HPO4+KH2PO4” in a ratio yielding the desired pH, and sufficient KCl to bring total K^+ concentration to 100 mM (Guo and Lu, 2000a). The HEPES-buffered intracellular solution, as used in FIG. 3, contained (100 mM K^+ (Cl^−+OH^−), 5 mM EDTA and 10 mM HEPES, pH 7.2 (adjusted with KOH). The HEPES-buffered extracellular solution contained 100 mM K^+ (Cl^−+OH^−), 0.3 mM CaCl2, 1.0 mM MgCl2, and 10 mM HEPES, pH 7.6 (adjusted with KOH). In the phosphate-buffered extracellular solution, HEPES was replaced by an equal concentration of “K2HPO4+KH2PO4” in a ratio yielding pH 7.6. The divalent cation-free extracellular solution contained 5 mM EDTA. All chemicals were purchased from Fluka Chemical Corp.
Since solutions in the quoted study were HEPES buffered, currents elicited with the voltage protocol used to produce the data in FIG. 12 were evaluated with no added divalent cations in the extracellular solution to determine whether the current relaxation was due to the use of extracellular HEPES.
The channel block associated with extracellular HEPES was examined to determine whether it could also be caused by residual contaminants. Intra- and extracellular solutions were buffered with 10 mM phosphate. […] The ratio of currents at the end and the beginning of voltage pulses (Iend/Ibgn) was plotted against membrane voltage.

IRK1 channels [3] = molecular target: T1, IRK1 channels; settings: 2000b, cited from earlier work
Kir2.1 = Kir2.1 (Homo sapiens, UniProt P63252); settings: 100 μM; cited from earlier work
Chain of Kir2.1 (P63252 whole entry): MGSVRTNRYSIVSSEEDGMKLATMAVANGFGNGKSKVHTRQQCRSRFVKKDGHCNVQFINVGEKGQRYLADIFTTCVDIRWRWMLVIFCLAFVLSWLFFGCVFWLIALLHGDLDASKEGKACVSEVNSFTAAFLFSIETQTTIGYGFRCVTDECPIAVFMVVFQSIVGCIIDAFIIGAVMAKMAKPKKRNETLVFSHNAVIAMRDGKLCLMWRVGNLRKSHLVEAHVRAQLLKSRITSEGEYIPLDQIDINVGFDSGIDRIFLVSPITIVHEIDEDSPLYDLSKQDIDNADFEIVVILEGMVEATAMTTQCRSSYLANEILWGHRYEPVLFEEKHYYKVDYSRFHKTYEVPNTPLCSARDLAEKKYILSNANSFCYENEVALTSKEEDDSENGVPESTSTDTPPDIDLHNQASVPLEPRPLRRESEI

Kir1.1 = Kir1.1 (Homo sapiens, UniProt P48048); settings: 100 μM; cited from earlier work
Chain of Kir1.1 (P48048 whole entry): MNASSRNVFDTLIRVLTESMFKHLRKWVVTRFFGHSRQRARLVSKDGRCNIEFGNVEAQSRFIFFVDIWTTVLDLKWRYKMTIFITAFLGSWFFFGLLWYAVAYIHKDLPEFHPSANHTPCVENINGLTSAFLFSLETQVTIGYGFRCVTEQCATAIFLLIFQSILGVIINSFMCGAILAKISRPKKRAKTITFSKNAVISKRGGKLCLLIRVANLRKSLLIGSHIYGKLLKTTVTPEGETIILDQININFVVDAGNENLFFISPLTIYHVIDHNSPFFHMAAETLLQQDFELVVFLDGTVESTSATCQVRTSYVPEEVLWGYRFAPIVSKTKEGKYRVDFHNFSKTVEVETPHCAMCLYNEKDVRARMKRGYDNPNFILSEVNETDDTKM

Shaker channel = Shaker channel (Drosophila melanogaster, UniProt P08510); settings: 100 μM; cited from earlier work
Chain of Shaker channel (P08510 whole entry): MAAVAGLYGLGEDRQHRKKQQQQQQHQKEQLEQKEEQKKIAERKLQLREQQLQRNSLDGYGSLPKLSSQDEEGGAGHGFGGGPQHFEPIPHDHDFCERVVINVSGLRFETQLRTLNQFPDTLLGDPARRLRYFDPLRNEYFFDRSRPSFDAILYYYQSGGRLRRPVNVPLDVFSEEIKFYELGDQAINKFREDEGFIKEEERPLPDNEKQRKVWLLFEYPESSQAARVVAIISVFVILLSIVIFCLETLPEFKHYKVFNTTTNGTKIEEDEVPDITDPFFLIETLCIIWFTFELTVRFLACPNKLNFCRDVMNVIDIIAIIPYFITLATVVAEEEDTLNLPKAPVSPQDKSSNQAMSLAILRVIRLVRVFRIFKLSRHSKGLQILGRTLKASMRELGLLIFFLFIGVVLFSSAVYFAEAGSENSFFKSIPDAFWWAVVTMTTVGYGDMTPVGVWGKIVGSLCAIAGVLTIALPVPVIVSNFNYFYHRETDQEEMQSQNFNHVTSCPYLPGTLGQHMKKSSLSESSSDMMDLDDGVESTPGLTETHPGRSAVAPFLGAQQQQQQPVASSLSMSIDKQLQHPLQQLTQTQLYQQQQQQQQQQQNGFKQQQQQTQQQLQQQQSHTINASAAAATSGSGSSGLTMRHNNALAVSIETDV

[4] = system: Kir2.1 (E224 and E299 replaced with neutral ones); settings: 100 μM; cited from earlier work
[5] = Goodman & Gilman's; cited from earlier work
[6] = intracellular blocker, Kd at 0 mV, mean±sem, read-out: Kd (0 mV), fit of the Woodhull equation

SMILES: O=C(O)CN(CC(=O)O)C1CCCCC1N(CC(=O)O)CC(=O)O (stereo not drawn) [CDTA, cyclohexane 1,2-diaminetetraacetic acid]
inward rectification with intracellular metal ion chelator (IRK1 channels [1]): more pronounced

inward rectification with intracellular metal ion chelator (IRK1 channels [1]): least rectification
SMILES: O=C(O)CN(CCN(CC(=O)O)CC(=O)O)CC(=O)O [EDTA, ethylene diamine tetraacetic acid]

inward rectification with intracellular metal ion chelator (IRK1 channels [1]): more pronounced
SMILES: O=C(O)CN(CCOCCOCCN(CC(=O)O)CC(=O)O)CC(=O)O [EGTA, ethylene glycol bis(β-aminoethyl ether) N,N,N′,N′-tetraacetic acid]

SMILES: OCCN1CCNCC1 [HEP, hydroxyethyl piperazine]
relative potency of channel block (qualitative) (IRK1 channels [1]; 10 mM HEPES, 3 μM HEP, 0.3 μM piperazine, intracellular): much more potent
Z (valence), fit of the Woodhull equation (IRK1 channels [1]; intracellular blocker): 1.09±0.03
Kd (IRK1 channels [1]; [6]): 2970 ± 160 µM
inward current relaxation / channel block by extracellular chemical (IRK1 channels [2]; 20 mM extracellular K+): blocked the channels

Z (valence), fit of the Woodhull equation (IRK1 channels [1]; intracellular blocker): 1.02±0.02
inward current relaxation / channel block by extracellular chemical (IRK1 channels [2]; 20 mM extracellular K+): prominent inward current relaxation
inward current relaxation / channel block by extracellular chemical (IRK1 channels [2]; 100 mM extracellular K+): little or no relaxation
SMILES: O=S(=O)(O)CCN1CCN(CCO)CC1 [HEPES, 4-(2 hydroxyethyl)-1-piperazineethanesulfonic acid]

Kd (IRK1 channels [1]; intracellular Mg2+, FIG. 7B, read-out: Kd (0 mV), fit of the Woodhull equation to the Mg2+-inhibition curve): 17 µM
Z (valence), fit of the Woodhull equation (IRK1 channels [1]; intracellular blocker): 1.1
SMILES: [Mg+2] [Mg^2+]

potency of channel block relative to EDTA (IRK1 channels [1]; 0.1 μM ethylenediamine versus 30 mM EDTA, intracellular): > 10,000 fold
SMILES: NCCN [ethylenediamine]
Z (valence) (IRK1 channels [3]; Guo and Lu): 2
Kd (IRK1 channels [3]; Guo and Lu, read-out: Kd (0 mV)): 1400 µM

Z (valence), fit of the Woodhull equation (IRK1 channels [1]; intracellular blocker): 1.08±0.02
Kd (IRK1 channels [1]; [6]): 270 ± 40 µM
inward current relaxation / channel block by extracellular chemical (IRK1 channels [2]; 20 mM extracellular K+): blocked the channels
SMILES: C1CNCCN1 [piperazine]
inhibition of Kir2.1 (Kir2.1): dramatically inhibits
effect on Kir1.1 (Kir1.1): no effects
effect on Shaker channel (Shaker channel): no effects
sensitivity of mutant Kir2.1 [4]: practically insensitive
adverse effects attending use [5]: Occasional gastrointestinal upset, transient neurological effects, and urticarial reaction
laboratory studies on patients receiving treatment for several days [5]: no abnormality
use during pregnancy [5]: without ill effect

SMILES: NCCCNCCCCNCCCN [spermine]
effective valence of channel block (IRK1 channels [3]; Guo and Lu 2000a): ~5
Kd (IRK1 channels [3]; Guo and Lu 2000a, read-out: Kd (0 mV) for binding of fully protonated spermine): ~0.1 µM
